Measured values published in US9802897B2, “Amidopyridinol derivative or pharmaceutically acceptable salt thereof and pharmaceutical composition comprising same as active component” (Research Cooperation Foundation of Yeungnam University, priority 2013, dated 2017).

Tested on: TNBS-induced colitis
Assay: TNBS-induced colitis model of inflammatory bowel disease
Assay type: in vivo, rat (Sprague Dawley)
Description: To see alleviating effects of the compounds of the present invention on colitis, an animal model induced by TNBS and having colitis was used for the experiments. The animal used herein was a 7 to 8 week Sprague Dawley species purchased from Samtaco Bio Korea. After the purchase, the animal was stabilized with typical solid feed for 2 days before being used for the experiments. The animal was freely supplied with feed and water during the experiments, and stayed in conditions maintaining a cage temperature of about 25±1° C. and relative humidity of about 50±10%. The cage was equipped with an automatic lightening system to adjust 12-hour light-dark cycle.
In regard to the experimental groups, 5 groups (i.e., a control group, a group administered with TNBS only, […], […], […]) were used according to the randomized block design, wherein each group consists of 6 rats having an average weight of about 180±10 g. The rats that had been fasting for 24 hours were anesthetized with diethylether (Et2O), and then, a 1 mL syringe connected with a polyethylene catheter was used to slowly inject 0.8 mL of 3% TNBS into colonic enema through the anus, wherein TNBS was diluted with 50% (v/v) ethanol. To prevent leakage of 3% TNBS from the anus, the rats turned upside down and let stand for 60 minutes.
In regard to the control group, only a vehicle (50% (v/v) ethanol) was injected into the rats of the control group in the same manner as in preparation of other experimental groups. To examine the effects of the drug, after being fasting for 24 hours, the rats were administered with drugs, i.e., 0.1 mg/kg or 1.0 mg/kg of Compounds 8a and 8j, once a day at a certain time from the second day to the fifth day of the TNBS treatment. As a comparative experimental material, 5-ASA, which is an active metabolite of sulfasalazine that is the most well-known as a therapeutic agent for IBDs, was used as a positive control group.
All the rats were scarified on the seventh day of the TNBS administration. […] After the large intestine of the rat was harvested, a 5 to 6 cm-long tissue from was cut from the anus to a size of 1 cm, and then, subjected to measure an intestine weight and activation of myeloperoxidase (MPO) in the tissue, and to perform a biopsy. In addition, changes in weight of all the animals used in the experiments were observed by using a digital mass meter, beginning from the fasting step, the TNBS administration, and the drug administration. In consideration of the management and use of laboratory animals, the animal experiments were followed according to institutional guidelines from Laboratory Animal Resources, Yeungnam University.
To measure the activation of MPO, an MPO assay was used. The colorectal tissue was washed with cold PBS, and a weight thereof was measured. Then, 200 μL of lysis buffer (pH7.4, 200 mM NaCl, 5 mM EDTA, 10 mM Tris, 10% glycerol) was added for each 10 mg of the weight of the tissue, and then, the tissue homogenizer (Bio homogenizer M133, BIOSPEC PRODUCTS Inc. USA) was used for 30 seconds in terms of homogenization. The homogenized sample was subjected to centrifugation (1500×g) twice, each for 15 minutes. The supernatant obtained therefrom was used to measure the activation of MPO by using the MPO ELISA kit (HK210, Hycult Biotechnology, Netherlands). 100 μL of the supernatant was added to the 96-well plates, each of which well was coated with an anti-mouse MPO antibody, to allow a reaction at room temperature for 1 hour, followed by being washed with PBS three times. Here, 100 μL of a reconstituted tracer was added thereto to allow a reaction at room temperature for 1 hour, followed by being washed three times repeatedly. Then, 100 μL of a reptavidin-peroxidase conjugate was added thereto to allow a reaction at room temperature for 1 hours, followed being washed. Then, 100 μL of a TMB substrate solution was added thereto to allow a reaction for 30 minutes. […]

CC(=O)Nc1nc(C)c(O)c(C)c1C [Compound 8a, N-(5-hydroxy-3,4,6-trimethylpyridine-2-yl)acetamide]
changes in weights of the rat (1.0 mg/kg once a day, TNBS-induced rats): excellent recovery of the weight compared to the group treated with 5-ASA
conditions of the large intestine observed with the naked eye (1.0 mg/kg, TNBS-induced rats): excellent inhibitory effects on swelling and congestion
weight of the large intestine (1.0 mg/kg, vs TNBS-treated group): significantly decreased
activation of myeloperoxidase (MPO) in colorectal tissue (1.0 mg/kg, vs group treated with TNBS only): lower activation of MPO
